This is an account of results in paper PMC8119466, “A screen of FDA-approved drugs identifies inhibitors of protein tyrosine phosphatase 4A3 (PTP4A3 or PRL-3)” (Scientific Reports, 2021).

Structures can show the parent of a compound that is named as a salt. Where two headings read alike, the source gives them in different places.

Common to all, as to format: biochemical
In one assay the target is T1, recombinant PRL-3 (Homo sapiens, UniProt O75365).
T1 construct: 6xHis (N, cleaved yes); made in house; host or cells: E. coli One Shot BL21 Star
The assay can be described thus: In vitro phosphatase assay (DiFMUP hydrolysis), PRL-3. Note: test concentration or dose not given here.

In another assay the target is T2, recombinant PRL-2 (Homo sapiens, UniProt Q12974).
T2 construct: 6xHis (N, cleaved yes); made in house; host or cells: E. coli One Shot BL21 Star
T2 sequence (Q12974 1-167): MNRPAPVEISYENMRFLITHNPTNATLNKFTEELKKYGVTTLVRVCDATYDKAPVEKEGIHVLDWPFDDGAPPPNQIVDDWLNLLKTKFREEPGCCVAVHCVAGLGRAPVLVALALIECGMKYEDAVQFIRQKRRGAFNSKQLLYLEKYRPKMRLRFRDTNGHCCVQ
The assay can be described thus: In vitro phosphatase assay (DiFMUP hydrolysis), PRL-2.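 Note: PRL-2 activity read as DiFMUP hydrolysis after 20 min at room temperature with drug, enzyme first pre-reduced at 4 °C for 20 min.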

A further assay has as its target T3, recombinant PRL-1 (Homo sapiens, UniProt Q93096).
T3 construct: 6xHis (N, cleaved yes); made in house; host or cells: E. coli One Shot BL21 Star
T3 sequence (Q93096 1-173): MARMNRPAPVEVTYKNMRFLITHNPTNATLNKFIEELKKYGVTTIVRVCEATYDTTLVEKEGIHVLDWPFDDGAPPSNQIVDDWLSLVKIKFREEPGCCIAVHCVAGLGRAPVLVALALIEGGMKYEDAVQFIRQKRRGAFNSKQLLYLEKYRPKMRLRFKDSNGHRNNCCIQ
The assay can be described thus: In vitro phosphatase assay (DiFMUP hydrolysis), PRL-1. Note: test concentration or dose not given here.

Setting [1] is: FDA-approved drug screen, activity compared to DMSO.
Where [2] appears, read: FDA-approved drug screen, compared to DMSO.

T1 sequence (O75365 whole entry): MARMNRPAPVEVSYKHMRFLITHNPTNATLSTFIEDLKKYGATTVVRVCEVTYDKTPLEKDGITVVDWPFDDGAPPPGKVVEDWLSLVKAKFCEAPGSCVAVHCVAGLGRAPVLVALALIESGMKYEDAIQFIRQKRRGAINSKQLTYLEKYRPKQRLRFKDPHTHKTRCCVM
Procedure for recombinant PRL-1: Briefly, protein was diluted in reaction buffer and allowed to incubate at 4 °C for 20 min to allow for full reduction of the active site. DiFMUP, drug, and protein were added, and plates were incubated for 20 min at room temperature. Fluorescence intensities were measured on a Cytation 5 plate reader (Biotek) at an EX:360 nm and EM:460 nm. […] Inhibition selectivity for PRLs over a panel of other phosphatases was determined using PhosphataseProfiler (Eurofins, Cat # PP260).

With `CCN(CC)CCNC(=O)c1c(C)[nH]c(/C=C2\C(=O)Nc3ccc(F)cc32)c1C` [Sunitinib], on recombinant PRL-3 (setting [1]), the “% Phosphatase Activity (compared to DMSO) PRL-3” value was 77%. The “% Phosphatase Activity (compared to DMSO) PRL-2” value on recombinant PRL-2 (setting [1]) stood at 42%. For the same compound, the “% Phosphatase Activity (compared to DMSO) PRL-1” value on recombinant PRL-1 (setting [1]) is given as 67%.

For the compound `CCCCOC(=O)c1ccc(O)cc1` [Butylparaben], at recombinant PRL-3 (setting [2]), the “% Phosphatase Activity (compared to DMSO) PRL-3” value is on record as 80%. Besides, the “% Phosphatase Activity (compared to DMSO) PRL-2” value at recombinant PRL-2 (setting [2]) is listed as 94%. The “% Phosphatase Activity (compared to DMSO) PRL-1” value on recombinant PRL-1 (setting [2]) is listed as 91%.

On to `COc1cc2nc(N(C)CCCNC(=O)C3CCCO3)nc(N)c2cc1OC` (stereo not drawn) [Alfuzosin HCl], for which the “% Phosphatase Activity (compared to DMSO) PRL-3” value at recombinant PRL-3 (setting [2]) worked out at 290%. Also, the “% Phosphatase Activity (compared to DMSO) PRL-2” value on recombinant PRL-2 (setting [2]) came to 536%. At recombinant PRL-1 (setting [2]), the “% Phosphatase Activity (compared to DMSO) PRL-1” value is listed as 590%.

With `COc1ccccc1N1CCN(CC(O)COc2cccc3ccccc23)CC1` (stereo not drawn) [Naftopidil], at recombinant PRL-3 (setting [2]), the “% Phosphatase Activity (compared to DMSO) PRL-3” value was 94%. Moreover, at recombinant PRL-2 (setting [2]), the “% Phosphatase Activity (compared to DMSO) PRL-2” value is on record as 111%. In addition, the “% Phosphatase Activity (compared to DMSO) PRL-1” value at recombinant PRL-1 (setting [2]) was found to be 109%.

Take `CC(C(=O)O)c1ccc(C(=O)c2cccs2)cc1` (stereo not drawn) [Suprofen]: at recombinant PRL-3 (setting [1]), the “% Phosphatase Activity (compared to DMSO) PRL-3” value was determined as 92%. The “% Phosphatase Activity (compared to DMSO) PRL-2” value on recombinant PRL-2 (setting [1]) is 95%. In addition, the “% Phosphatase Activity (compared to DMSO) PRL-1” value at recombinant PRL-1 (setting [1]) is listed as 93%.

In the case of `NC(=O)N1c2ccccc2CC(=O)c2ccccc21` [Oxcarbazepine], the “% Phosphatase Activity (compared to DMSO) PRL-3” value at recombinant PRL-3 (setting [2]) was 89%. Also, the “% Phosphatase Activity (compared to DMSO) PRL-2” value at recombinant PRL-2 (setting [2]) came out at 112%. For the same compound, at recombinant PRL-1 (setting [2]), the “% Phosphatase Activity (compared to DMSO) PRL-1” value is 104%.

Turning to `CN(C)[C@@H]1C(O)=C(C(N)=O)C(=O)[C@@]2(O)C(O)=C3C(=O)c4c(O)ccc(Cl)c4[C@@](C)(O)[C@H]3C[C@@H]12` [Chlortetracycline HCl], on recombinant PRL-3 (setting [2]), the “% Phosphatase Activity (compared to DMSO) PRL-3” value is given as 77%. In addition, the “% Phosphatase Activity (compared to DMSO) PRL-2” value on recombinant PRL-2 (setting [2]) was determined as 95%. Besides, the “% Phosphatase Activity (compared to DMSO) PRL-1” value on recombinant PRL-1 (setting [2]) turned out to be 106%.

For the compound `O=C(C[S+]([O-])Cc1ccco1)NC/C=C\COc1cc(CN2CCCCC2)ccn1` (stereo not drawn) [Lafutidine], the “% Phosphatase Activity (compared to DMSO) PRL-3” value on recombinant PRL-3 (setting [2]) is listed as 83%. Moreover, the “% Phosphatase Activity (compared to DMSO) PRL-2” value on recombinant PRL-2 (setting [2]) stood at 115%. For the same compound, the “% Phosphatase Activity (compared to DMSO) PRL-1” value on recombinant PRL-1 (setting [2]) came out at 114%.

As to `Nc1ccccc1NC(=O)c1ccc(CNC(=O)OCc2cccnc2)cc1` [Entinostat (MS-275)], the “% Phosphatase Activity (compared to DMSO) PRL-3” value at recombinant PRL-3 (setting [2]) is 80%. Besides, the “% Phosphatase Activity (compared to DMSO) PRL-2” value on recombinant PRL-2 (setting [2]) is 91%. The “% Phosphatase Activity (compared to DMSO) PRL-1” value at recombinant PRL-1 (setting [2]) was 91%.

Take `COc1ccc2cccc(CCNC(C)=O)c2c1` [Agomelatine]: the “% Phosphatase Activity (compared to DMSO) PRL-3” value at recombinant PRL-3 (setting [2]) turned out to be 76%. At recombinant PRL-2 (setting [2]), the “% Phosphatase Activity (compared to DMSO) PRL-2” value is reported as 98%. The “% Phosphatase Activity (compared to DMSO) PRL-1” value on recombinant PRL-1 (setting [2]) was found to be 92%.

Consider `C[C@H](Nc1ncnc2nc[nH]c12)c1cc2cccc(Cl)c2c(=O)n1-c1ccccc1` [IPI-145 (INK1197)], for which the “% Phosphatase Activity (compared to DMSO) PRL-3” value on recombinant PRL-3 (setting [2]) is 97%. In addition, the “% Phosphatase Activity (compared to DMSO) PRL-2” value at recombinant PRL-2 (setting [2]) was determined as 88%. Further, the “% Phosphatase Activity (compared to DMSO) PRL-1” value at recombinant PRL-1 (setting [2]) was 107%.

As to `CC1=NN(c2ccc(C)c(C)c2)C(=O)/C1=N\Nc1cccc(-c2cccc(C(=O)O)c2)c1O` [Eltrombopag Olamine], at recombinant PRL-3 (setting [2]), the “% Phosphatase Activity (compared to DMSO) PRL-3” value is reported as 35%. Moreover, the “% Phosphatase Activity (compared to DMSO) PRL-2” value on recombinant PRL-2 (setting [2]) is recorded as 66%. Besides, on recombinant PRL-1 (setting [2]), the “% Phosphatase Activity (compared to DMSO) PRL-1” value amounted to 56%.

For the compound `C#CCN[C@@H]1CCc2ccccc21` [Rasagiline Mesylate], at recombinant PRL-3, the “% Phosphatase Activity (compared to DMSO) PRL-3” value is 99%. In addition, the “% Phosphatase Activity (compared to DMSO) PRL-2” value at recombinant PRL-2 was determined as 130%. Also, the “% Phosphatase Activity (compared to DMSO) PRL-1” value at recombinant PRL-1 came to 116%.

For the compound `Cc1nc(C(=O)NCC(=O)O)c(O)c2ccc(Oc3ccccc3)cc12` [FG-4592], the “% Phosphatase Activity (compared to DMSO) PRL-3” value at recombinant PRL-3 (setting [2]) was determined as 95%. In addition, the “% Phosphatase Activity (compared to DMSO) PRL-2” value on recombinant PRL-2 (setting [2]) is on record as 139%. The “% Phosphatase Activity (compared to DMSO) PRL-1” value at recombinant PRL-1 (setting [2]) is 136%.

Consider `Cc1cncc(CN2CCC(=C3c4ccc(Cl)cc4CCc4cccnc43)CC2)c1.O=C(O)/C=C/C(=O)O` [Rupatadine Fumarate], for which the “% Phosphatase Activity (compared to DMSO) PRL-3” value on recombinant PRL-3 (setting [2]) turned out to be 98%. Besides, at recombinant PRL-2 (setting [2]), the “% Phosphatase Activity (compared to DMSO) PRL-2” value was 100%. Further, on recombinant PRL-1 (setting [2]), the “% Phosphatase Activity (compared to DMSO) PRL-1” value turned out to be 92%.
